Measured values from PubChem BioAssay (NCI).
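Each compound was tested at five concentrations against cells in 96-well plates for 48 hours. Here, GI50 denotes the concentration required for 50% inhibition of growth. TGI marks complete inhibition of growth.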

What was measured:
Assay in all cases: NCI tumour cell line growth inhibition, 48 h; in the data active = GI50 below about 0.43 µM; inactive = the rest
[1] = test system: 786-0 renal
[2] = test system: A498 renal
[3] = test system: A549 NSCLC
[4] = test system: ACHN renal
[5] = test system: BT-549 breast
[6] = test system: CAKI-1 renal
[7] = test system: CCRF-CEM leukemia
[8] = test system: COLO 205 colon
[9] = test system: DU-145 prostate
[10] = test system: EKVX NSCLC
[11] = test system: HCC-2998 colon
[12] = test system: HCT-116 colon
[13] = test system: HCT-15 colon
[14] = test system: HL-60(TB) leukemia
[15] = test system: HOP-62 NSCLC
[16] = test system: HOP-92 NSCLC
[17] = test system: HS 578T breast
[18] = test system: HT29 colon
[19] = test system: IGROV1 ovarian
[20] = test system: K-562 leukemia
[21] = test system: KM12 colon
[22] = test system: LOX IMVI melanoma
[23] = test system: M14 melanoma
[24] = test system: MALME-3M melanoma
[25] = test system: MCF7 breast
[26] = test system: MDA-MB-231 breast
[27] = test system: MDA-MB-435
[28] = test system: MOLT-4 leukemia
[29] = test system: NCI-H226 lung
[30] = test system: NCI-H23 lung
[31] = test system: NCI-H460 lung
[32] = test system: NCI-H522 lung
[33] = test system: NCI/ADR-RES ovarian
[34] = test system: OVCAR-3 ovarian
[35] = test system: OVCAR-4 ovarian
[36] = test system: OVCAR-5 ovarian
[37] = test system: OVCAR-8 ovarian
[38] = test system: PC-3 prostate
[39] = test system: RPMI-8226 leukemia
[40] = test system: RXF 393 renal
[41] = test system: SF-268 CNS
[42] = test system: SF-295 CNS
[43] = test system: SF-539 CNS
[44] = test system: SK-MEL-2 melanoma
[45] = test system: SK-MEL-28 melanoma
[46] = test system: SK-MEL-5 melanoma
[47] = test system: SK-OV-3 ovarian
[48] = test system: SN12C renal
[49] = test system: SNB-19 CNS
[50] = test system: SNB-75 CNS
[51] = test system: SR leukemia
[52] = test system: SW-620 colon
[53] = test system: T-47D breast
[54] = test system: TK-10 renal
[55] = test system: U251 CNS
[56] = test system: UACC-257 melanoma
[57] = test system: UACC-62 melanoma
[58] = test system: UO-31 renal

O=c1[nH]c2ccc(N=Cc3c(O)[nH]c4ccccc34)cc2[nH]1
> 25 µM: TGI [1] | TGI [2] | TGI [3] | TGI [4] | TGI [5] | TGI [6] | TGI [7] | TGI [8] | TGI [9] | TGI [10] | TGI [11] | TGI [12] | TGI [13] | TGI [14] | TGI [15] | TGI [16] | TGI [17] | TGI [18] | TGI [19] | TGI [20] | TGI [21] | TGI [22] | TGI [23] | TGI [24] | TGI [25] | TGI [26] | TGI [27] | TGI [28] | TGI [29] | TGI [30] | TGI [31] | TGI [32] | TGI [33] | TGI [34] | TGI [35] | TGI [36] | TGI [37] | TGI [38] | TGI [39] | TGI [40] | TGI [41] | TGI [42] | TGI [43] | TGI [44] | TGI [45] | TGI [46] | TGI [47] | TGI [48] | TGI [49] | TGI [50] | TGI [51] | TGI [52] | TGI [53] | TGI [54] | TGI [55] | TGI [56] | TGI [57] | TGI [58]
inactive: GI50 [1] > 25 µM | GI50 [2] > 25 µM | GI50 [3] > 25 µM | GI50 [4] > 25 µM | GI50 [5] > 25 µM | GI50 [6] > 25 µM | GI50 [7] 24.2 µM | GI50 [8] > 25 µM | GI50 [9] > 20.4 µM | GI50 [10] > 25 µM | GI50 [11] > 25 µM | GI50 [12] > 25 µM | GI50 [13] > 25 µM | GI50 [14] > 25 µM | GI50 [15] > 17.7 µM | GI50 [16] 23.2 µM | GI50 [17] > 6.4 µM | GI50 [18] > 25 µM | GI50 [19] > 25 µM | GI50 [20] > 25 µM | GI50 [21] > 25 µM | GI50 [22] > 25 µM | GI50 [23] > 25 µM | GI50 [24] > 25 µM | GI50 [25] > 25 µM | GI50 [26] > 25 µM | GI50 [27] > 25 µM | GI50 [28] > 25 µM | GI50 [29] > 25 µM | GI50 [30] > 25 µM | GI50 [31] > 25 µM | GI50 [32] > 25 µM | GI50 [33] > 25 µM | GI50 [34] > 25 µM | GI50 [35] > 25 µM | GI50 [36] > 25 µM | GI50 [37] > 25 µM | GI50 [38] > 25 µM | GI50 [39] > 25 µM | GI50 [40] > 25 µM | GI50 [41] > 13.8 µM | GI50 [42] > 25 µM | GI50 [43] > 25 µM | GI50 [44] > 25 µM | GI50 [45] > 25 µM | GI50 [46] > 25 µM | GI50 [47] > 25 µM | GI50 [48] > 25 µM | GI50 [49] > 25 µM | GI50 [50] > 14.7 µM | GI50 [51] > 25 µM | GI50 [52] > 25 µM | GI50 [53] > 25 µM | GI50 [54] > 25 µM | GI50 [55] 18.6 µM | GI50 [56] > 25 µM | GI50 [57] > 25 µM | GI50 [58] > 25 µM
